From patent publication US12552825B2 (Zikani Therapeutics, Inc., priority 2019, dated 2026) come the findings set out here.

Format in all cases: cell-based
The test system of one experiment is K. pneumoniae MP-648. The experiment is described as follows: MIC determination by CLSI broth dilution, K. pneumoniae MP-648. As to conditions: Klebsiella pneumoniae, MP648, CLSI broth dilution; strain MP-648.
A further experiment has as its system S. aureus MP-12. Nature of the experiment: microbe, parasite or virus in culture. As to conditions: Staphylococcus aureus, MP12, read-out: MIC S. aureus MP-12.
For the next experiment, the system named is A. baumannii MP-15. Nature of the experiment: MIC determination by CLSI broth dilution, A. baumannii MP-15. As to conditions: Acinetobacter baumannii, MP15, strain MP-15, read-out: MIC A. baumanii MP-15.
The next experiment deals with K. pneumoniae MP-546. Nature of the experiment: MIC determination by CLSI broth dilution, K. pneumoniae MP-546. As to conditions: Klebsiella pneumoniae, MP546, CLSI broth dilution; strain MP-546.
For the next experiment, the system named is E. coli MP-4. The experiment is described as follows: MIC determination by CLSI broth dilution, E. coli MP-4. As to conditions: Escherichia coli, MP4, CLSI broth dilution; strain MP-4. A general note: Broth dilution looks for growth in wells or tubes with falling amounts of substance.
In another experiment the test system is P. aeruginosa MP-3. The experiment is described as follows: MIC determination by CLSI broth dilution, P. aeruginosa MP-3. As to conditions: Pseudomonas aeruginosa, MP3, strain MP-3.

Values after ≈ are worked out from the molar mass of the structure shown.

In the case of `CO[C@]1(C)C[C@@H](C)CN(C)[C@@H](CCCN2CCC(F)CC2)COC(=O)C(C)(C)C(=O)[C@H](C)[C@H]1O[C@@H]1O[C@H](C)C[C@H](N(C)C)[C@H]1O` [Compound 103, (3S,6R,8R,9R,10R)-9-(((2S,3R,4S,6R)-4-(dimethylamino)-3-hydroxy-6-methyltetrahydro-2H-pyran-2-yl)oxy)-3-(3-(4-fluoropiperidin-1-yl)propyl)-8-methoxy-4,6,8,10,12,12-hexamethyl-1-oxa-4-azacyclotridecane-11,13-dione], the MIC in the experiment on K. pneumoniae MP-648 is under 4 µg/mL; in the experiment with S. aureus MP-12, 4 to 32 µg/mL (≈ 6.21 to 49.7 µM); in the experiment on A. baumannii MP-15, over 32 µg/mL; against K. pneumoniae MP-546, under 4 µg/mL; against E. coli MP-4, under 4 µg/mL; against P. aeruginosa MP-3, over 32 µg/mL.
Consider `CO[C@]1(C)C[C@@H](C)CN(C)[C@@H](CCCN2CCC(O)CC2)COC(=O)C(C)(C)C(=O)[C@H](C)[C@H]1O[C@@H]1O[C@H](C)C[C@H](N(C)C)[C@H]1O` [Compound 92, (3S,6R,8R,9R,10R)-9-(((2S,3R,4S,6R)-4-(dimethylamino)-3-hydroxy-6-methyltetrahydro-2H-pyran-2-yl)oxy)-3-(3-(4-hydroxypiperidin-1-yl)propyl)-8-methoxy-4,6,8,10,12,12-hexamethyl-1-oxa-4-azacyclotridecane-11,13-dione], for which the MIC against K. pneumoniae MP-648 was 4 to 32 µg/mL (≈ 6.23 to 49.9 µM); in the experiment on S. aureus MP-12 it was over 32 µg/mL; with A. baumannii MP-15, over 32 µg/mL; with K. pneumoniae MP-546, 4 to 32 µg/mL (≈ 6.23 to 49.9 µM); against E. coli MP-4 it was under 4 µg/mL; against P. aeruginosa MP-3 it was over 32 µg/mL.
Regarding `CCCN1C[C@H](C)C[C@@](C)(OC)[C@H](O[C@@H]2O[C@H](C)C[C@H](N(C)C)[C@H]2O)[C@@H](C)C(=O)C(C)(C)C(=O)OC[C@@H]1CCCN1Cc2ccccc2C1` [Compound 126, (3S,6R,8R,9R,10R)-9-(((2S,3R,4S,6R)-4-(dimethylamino)-3-hydroxy-6-methyltetrahydro-2H-pyran-2-yl)oxy)-3-(3-(isoindolin-2-yl)propyl)-8-methoxy-6,8,10,12,12-pentamethyl-4-propyl-1-oxa-4-azacyclotridecane-11,13-dione], the MIC with K. pneumoniae MP-648 was under 4 µg/mL; in the experiment with S. aureus MP-12, under 4 µg/mL; in the experiment with A. baumannii MP-15, 4 to 32 µg/mL (≈ 5.81 to 46.5 µM); with K. pneumoniae MP-546 it was under 4 µg/mL; against E. coli MP-4, under 4 µg/mL; in the experiment with P. aeruginosa MP-3 it was over 32 µg/mL.
`CO[C@]1(C)C[C@@H](C)CN(C)[C@@H]([C@H](O)C2CCN(CC3CCCCC3)CC2)COC(=O)C(C)(C)C(=O)[C@H](C)[C@H]1O[C@@H]1O[C@H](C)C[C@H](N(C)C)[C@H]1O` [Compound 25]: the MIC against K. pneumoniae MP-648 is 4 to 32 µg/mL (≈ 5.63 to 45.1 µM); with S. aureus MP-12 it was over 32 µg/mL; in the experiment on A. baumannii MP-15, over 32 µg/mL; in the experiment with K. pneumoniae MP-546, 4 to 32 µg/mL (≈ 5.63 to 45.1 µM); in the experiment with E. coli MP-4 it was under 4 µg/mL; against P. aeruginosa MP-3, over 32 µg/mL.
`CCCCCCCN1CCC([C@@H](O)[C@H]2COC(=O)C(C)(C)C(=O)[C@H](C)[C@@H](O[C@@H]3O[C@H](C)C[C@H](N(C)C)[C@H]3O)[C@](C)(OC)C[C@@H](C)CN2C)CC1` [Compound 22]: the MIC against K. pneumoniae MP-648 was over 32 µg/mL; in the experiment with S. aureus MP-12, over 32 µg/mL; in the experiment with A. baumannii MP-15, over 32 µg/mL; in the experiment with K. pneumoniae MP-546, 4 to 32 µg/mL (≈ 5.62 to 44.9 µM); with E. coli MP-4 it was under 4 µg/mL; against P. aeruginosa MP-3 it was over 32 µg/mL.
As for `CO[C@]1(C)C[C@@H](C)CN(C)[C@H](CC2CN(CC(C)C)C2)COC(=O)C(C)(C)C(=O)[C@H](C)[C@H]1O[C@@H]1O[C@H](C)C[C@H](N(C)C)[C@H]1O` [Compound 74], the MIC in the experiment with K. pneumoniae MP-648, in the experiment with S. aureus MP-12, with A. baumannii MP-15, in the experiment on K. pneumoniae MP-546, in the experiment on E. coli MP-4 and in the experiment with P. aeruginosa MP-3 was over 32 µg/mL in each case.
For the compound `CO[C@]1(C)C[C@@H](C)CN(C)[C@H](CC2CCN(C(C)C)CC2)COC(=O)C(C)(C)C(=O)[C@H](C)[C@H]1O[C@@H]1O[C@H](C)C[C@H](N(C)C)[C@H]1O` [Compound 52], the MIC was 4 to 32 µg/mL (≈ 6.25 to 50 µM) against K. pneumoniae MP-648; 4 to 32 µg/mL (≈ 6.25 to 50 µM) with S. aureus MP-12; over 32 µg/mL in the experiment with A. baumannii MP-15; under 4 µg/mL in the experiment with K. pneumoniae MP-546; under 4 µg/mL against E. coli MP-4; over 32 µg/mL with P. aeruginosa MP-3.
As for `CO[C@]1(C)C[C@@H](C)CN(C)[C@@H](CC2CCN(CC3CC=CCC3)CC2)COC(=O)C(C)(C)C(=O)[C@H](C)[C@H]1O[C@@H]1O[C@H](C)C[C@H](N(C)C)[C@H]1O` (stereo partly drawn) [Compound 73], the MIC with K. pneumoniae MP-648 is 4 to 32 µg/mL (≈ 5.78 to 46.2 µM); with S. aureus MP-12, 4 to 32 µg/mL (≈ 5.78 to 46.2 µM); in the experiment with A. baumannii MP-15, over 32 µg/mL; with K. pneumoniae MP-546, under 4 µg/mL; in the experiment with E. coli MP-4, under 4 µg/mL; in the experiment on P. aeruginosa MP-3, over 32 µg/mL.
With `CO[C@]1(C)C[C@@H](C)CN(C)[C@H](CCCN2CCCCC2)COC(=O)C(C)(C)C(=O)[C@H](C)[C@H]1O[C@@H]1O[C@H](C)C[C@H](N(C)C)[C@H]1O` [Compound 93, (3R,6R,8R,9R,10R)-9-(((2S,3R,4S,6R)-4-(dimethylamino)-3-hydroxy-6-methyltetrahydro-2H-pyran-2-yl)oxy)-8-methoxy-4,6,8,10,12,12-hexamethyl-3-(3-(piperidin-1-yl)propyl)-1-oxa-4-azacyclotridecane-11,13-dione], the MIC in the experiment with K. pneumoniae MP-648 is under 4 µg/mL; in the experiment with S. aureus MP-12, 4 to 32 µg/mL (≈ 6.39 to 51.1 µM); with A. baumannii MP-15, over 32 µg/mL; against K. pneumoniae MP-546 it was under 4 µg/mL; with E. coli MP-4 it was under 4 µg/mL; against P. aeruginosa MP-3 it was over 32 µg/mL.
Take `CO[C@]1(C)C[C@@H](C)CN(C)[C@@H](CCCN2CCC(C)(C)CC2)COC(=O)C(C)(C)C(=O)[C@H](C)[C@H]1O[C@@H]1O[C@H](C)C[C@H](N(C)C)[C@H]1O` [Compound 128, (3S,6R,8R,9R,10R)-9-(((2S,3R,4S,6R)-4-(dimethylamino)-3-hydroxy-6-methyltetrahydro-2H-pyran-2-yl)oxy)-3-(3-(4,4-dimethylpiperidin-1-yl)propyl)-8-methoxy-4,6,8,10,12,12-hexamethyl-1-oxa-4-azacyclotridecane-11,13-dione]: the MIC was under 4 µg/mL against K. pneumoniae MP-648; 4 to 32 µg/mL (≈ 6.12 to 48.9 µM) with S. aureus MP-12; over 32 µg/mL in the experiment with A. baumannii MP-15; under 4 µg/mL against K. pneumoniae MP-546; under 4 µg/mL in the experiment with E. coli MP-4; over 32 µg/mL in the experiment on P. aeruginosa MP-3.
Regarding `C=C(C[C@@H]1COC(=O)C(C)(C)C(=O)[C@H](C)[C@@H](O[C@@H]2O[C@H](C)C[C@H](N(C)C)[C@H]2O)[C@](C)(OC)C[C@@H](C)CN1C)CN(CCC)CCC` [Compound 2], the MIC was over 32 µg/mL against K. pneumoniae MP-648; over 32 µg/mL with S. aureus MP-12; over 32 µg/mL with A. baumannii MP-15; over 32 µg/mL in the experiment on K. pneumoniae MP-546; 4 to 32 µg/mL (≈ 6.12 to 48.9 µM) in the experiment with E. coli MP-4; over 32 µg/mL against P. aeruginosa MP-3.
As to `CCCN1CC=C(C[C@@H]2COC(=O)C(C)(C)C(=O)[C@H](C)[C@@H](O[C@@H]3O[C@H](C)C[C@H](N(C)C)[C@H]3O)[C@](C)(OC)C[C@@H](C)CN2C)CC1` [Compound 59], the MIC was 4 to 32 µg/mL (≈ 6.27 to 50.2 µM) against K. pneumoniae MP-648; under 4 µg/mL in the experiment on S. aureus MP-12; over 32 µg/mL in the experiment on A. baumannii MP-15; under 4 µg/mL against K. pneumoniae MP-546; under 4 µg/mL with E. coli MP-4; over 32 µg/mL with P. aeruginosa MP-3.
As for `CO[C@H](CCN1CCCC1)[C@@H]1COC(=O)C(C)(C)C(=O)[C@H](C)[C@@H](O[C@@H]2O[C@H](C)C[C@H](N(C)C)[C@H]2O)[C@](C)(OC)C[C@@H](C)CN1C` [Compound 77], the MIC against K. pneumoniae MP-648 was under 4 µg/mL; in the experiment on S. aureus MP-12, 4 to 32 µg/mL (≈ 6.23 to 49.9 µM); with A. baumannii MP-15, over 32 µg/mL; with K. pneumoniae MP-546 it was under 4 µg/mL; in the experiment with E. coli MP-4, under 4 µg/mL; in the experiment on P. aeruginosa MP-3, over 32 µg/mL.
